For 8 molecules, IC50 results are on record in patent US11759462B2, “Spirocyclic compounds as tryptophan hydroxylase inhibitors” (priority 2013, dated 2023).

The structures appear in SMILES notation.

In this test the target is T1, Recombinant human TPH1 (MBP tagged) (Homo sapiens, UniProt P17752).
T1 construct: cloning full length human TPH1 cDNA in to a bacterial pMAL-c5E expression vector; made in house; host or cells: E. coli BL21 (DE3)
T1 sequence (P17752 1-444): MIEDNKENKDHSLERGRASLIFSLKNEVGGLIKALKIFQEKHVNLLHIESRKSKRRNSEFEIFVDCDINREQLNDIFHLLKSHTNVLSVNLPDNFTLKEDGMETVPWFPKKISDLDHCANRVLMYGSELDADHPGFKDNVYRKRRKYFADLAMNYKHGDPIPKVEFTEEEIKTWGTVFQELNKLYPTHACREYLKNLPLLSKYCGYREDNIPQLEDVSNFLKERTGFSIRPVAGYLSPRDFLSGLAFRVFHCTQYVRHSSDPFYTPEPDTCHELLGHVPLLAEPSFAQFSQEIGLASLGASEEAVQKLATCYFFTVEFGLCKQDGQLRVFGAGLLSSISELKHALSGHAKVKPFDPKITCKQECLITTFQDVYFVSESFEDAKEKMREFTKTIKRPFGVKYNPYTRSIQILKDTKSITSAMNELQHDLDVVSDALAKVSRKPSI
Nature of the test: TPH1 in vitro inhibition assay (kinetic fluorescence). Particulars: read-out: TPH1 Range (TPH1 inhibition IC50). The class given is biochemical. The text has this:
Recombinant human TPH1 (rTPH1 GenBank™ accession no. NP_004179) was expressed by cloning full length human TPH1 cDNA in to a bacterial pMAL-c5E expression vector to produce maltose-binding protein (MBP) TPH1 fusion proteins. E. coli BL21 (DE3) containing pMAL-c5E-TPH1 was used for protein generation and the recombinant protein was purified utilizing standard column chromatography techniques. The MBP tagged TPH1 (MBP-TPH1) was used directly to screen compounds as described below. Recombinant human TPH2 (rTPH2 GenBank™ accession no. 173353), PheOH (rPheOH GenBank™ accession no. K03020) and TH (rTH GenBank™ accession no. L20679) with an MBP tag were produced similarly.
TPH1 activities were measured in an assay containing 200 mM ammonium sulfate, 7 mM DTT, 50 μg/mL catalase, 25 μM ammonium iron sulfate, 50 mM MES, pH 7.1. Test compounds were diluted in 100% DMSO and added to the assay plate in 1 μL aliquots at 100× final concentration. Fifty microliters of assay buffer containing 30 nM TPH1 enzyme (MBP tagged) were added to the plate wells containing the test compound by the use of an Eppendorf repeater pipette. The reaction was initiated by the addition of 50 μL of assay buffer containing 60 μM tryptophan and 72 μM 6-6-methyltetra-hydropterin (2× final concentration) by the use of a Multidrop (LabSystems). Final reaction conditions were 15 nM TPH1 enzyme, 30 μM tryptophan, 36 μM 6-methyltetra-hydropterin, 200 mM ammonium sulfate, 7 mM DTT, […], 25 μM ferrous ammonium sulfate, 50 mM MES, pH 7.1, with atmospheric oxygen at room temperature. The plate was immediately placed onto an M5 plate reader (Molecular Devices) for kinetic fluorescence measurement using an excitation setting of 300 nm and an emission setting of 335 nm. Fluorescence reads are recorded in kinetic mode for 300 seconds (5 minutes).
Kinetic assay data for compounds at specific concentrations was translated into slopes using the Softmax Pro software on a Spectramax reader, and compound inhibition slopes were compared with wells containing enzyme, substrate and cofactor in the absence of inhibitor (100%), and wells containing substrate and cofactor in the absence of enzyme (0%). DMSO concentration in the assay was 1%. […] IC50's were determined using Graphpad Prism.
`Cc1ccn(-c2cc(-c3cc(Cl)cc(C(F)(F)F)c3)ccc2[C@@H](Oc2cc(N3CCC4(CC3)CN[C@H](C(=O)O)C4)nc(N)n2)C(F)(F)F)n1` [Example 1ak, (S)-8-(2-amino-6-((R)-1-(3′-chloro-3-(3-methyl-1H-pyrazol-1-yl)-5′-(trifluoromethyl)-[1,1′-biphenyl]-4-yl)-2,2,2-trifluoroethoxy)pyrimidin-4-yl)-2,8-diazaspiro[4.5]decane-3-carboxylic acid]: the IC50 (as a rule, the concentration that gives 50% inhibition) lay within 50 to 300 nM.

Regarding `CCOc1ccc(-c2ccc([C@@H](Oc3cc(N4CCC5(CC4)CN[C@H](C(=O)O)C5)nc(N)n3)C(F)(F)F)c(-n3ccc(C)n3)c2)cc1Cl` [Example 1al, (S)-8-(2-amino-6-((R)-1-(3′-chloro-4′-ethoxy-3-(3-methyl-1H-pyrazol-1-yl)-[1,1′-biphenyl]-4-yl)-2,2,2-trifluoroethoxy)pyrimidin-4-yl)-2,8-diazaspiro[4.5]decane-3-carboxylic acid], the half-maximal inhibitory concentration (IC50) is under 50 nM.

Regarding `Cc1ccn(-c2cc(-c3cccc(C(F)(F)F)c3)ccc2[C@@H](Oc2cc(N3CCC4(CC3)CN[C@H](C(=O)O)C4)nc(N)n2)C(F)(F)F)n1` [Example 1am, (S)-8-(2-amino-6-((R)-2,2,2-trifluoro-1-(3-(3-methyl-1H-pyrazol-1-yl)-3′-(trifluoromethyl)-[1,1′-biphenyl]-4-yl)ethoxy)pyrimidin-4-yl)-2,8-diazaspiro[4.5]decane-3-carboxylic acid], the half-inhibitory concentration (IC50) was under 50 nM.

With `Cc1cc(Cl)cc(-c2ccc([C@@H](Oc3cc(N4CCC5(CC4)CN[C@H](C(=O)O)C5)nc(N)n3)C(F)(F)F)c(-n3ccc(C)n3)c2)c1` [Example 1an, (S)-8-(2-amino-6-((R)-1-(3′-chloro-5′-methyl-3-(3-methyl-1H-pyrazol-1-yl)-[1,1′-biphenyl]-4-yl)-2,2,2-trifluoroethoxy)pyrimidin-4-yl)-2,8-diazaspiro[4.5]decane-3-carboxylic acid], the IC50 was under 50 nM.

On to `Cc1ccn(-c2cc(-c3ccc(Cl)c(F)c3)ccc2[C@@H](Oc2cc(N3CCC4(CC3)CN[C@H](C(=O)O)C4)nc(N)n2)C(F)(F)F)n1` [Example 1ao, (S)-8-(2-amino-6-((R)-1-(4′-chloro-3′-fluoro-3-(3-methyl-1H-pyrazol-1-yl)-[1,1′-biphenyl]-4-yl)-2,2,2-trifluoroethoxy)pyrimidin-4-yl)-2,8-diazaspiro[4.5]decane-3-carboxylic acid], for which the IC50 is under 50 nM.

Consider `CCOc1cccc(-c2ccc([C@@H](Oc3cc(N4CCC5(CC4)CN[C@H](C(=O)O)C5)nc(N)n3)C(F)(F)F)c(-n3ccc(C)n3)c2)c1` [Example 1ap, (S)-8-(2-amino-6-((R)-1-(3′-ethoxy-3-(3-methyl-1H-pyrazol-1-yl)-[1,1′-biphenyl]-4-yl)-2,2,2-trifluoroethoxy)pyrimidin-4-yl)-2,8-diazaspiro[4.5]decane-3-carboxylic acid], for which the IC50 was under 50 nM.

Turning to `Cc1ccn(-c2cc(-c3ccc(C)c(F)c3)ccc2[C@@H](Oc2cc(N3CCC4(CC3)CN[C@H](C(=O)O)C4)nc(N)n2)C(F)(F)F)n1` [Example 1aq, (S)-8-(2-amino-6-((R)-2,2,2-trifluoro-1-(3′-fluoro-4′-methyl-3-(3-methyl-1H-pyrazol-1-yl)-[1,1′-biphenyl]-4-yl)ethoxy)pyrimidin-4-yl)-2,8-diazaspiro[4.5]decane-3-carboxylic acid], the IC50 is 50 to 300 nM.

Take `Cc1ccn(-c2cc(-c3ccc(F)c(Cl)c3)ccc2[C@@H](Oc2cc(N3CCC4(CC3)CN[C@H](C(=O)O)C4)nc(N)n2)C(F)(F)F)n1` [Example 1ar, (S)-8-(2-amino-6-((R)-1-(3′-chloro-4′-fluoro-3-(3-methyl-1H-pyrazol-1-yl)-[1,1′-biphenyl]-4-yl)-2,2,2-trifluoroethoxy)pyrimidin-4-yl)-2,8-diazaspiro[4.5]decane-3-carboxylic acid]: the IC50 was 50 to 300 nM.
